Measurements as given in US12396995B2, “Substituted 4-aminoisoindoline-1,3-dione compounds and second active agents for combined use” (Celgene Corporation, priority 2019, dated 2025).

Experiments:
[1] = system: WSU-DLCL2 DLBCL xenograft tumors; test: WSU-DLCL2 (DLBCL) xenograft model, Compound 1 alone and with tazemetostat; format: in vivo, female SCID mice
Protocol: (§1) Anti-tumor activity of Compound 1 alone and in combination with tazemetostat was studied in WSU-DLCL2 (DLBCL) xenograft model. Compound 1 (1 mg/kg) was administered once daily for 5 consecutive days followed by 2 days off (5 D on/2 D off) and tazemetostat (200 mg/kg) was administered twice daily (BID).
(§2) Methods: Xenograft study was conducted with female SCID mice bearing WSU-DLCL2 DLBCL xenograft tumors. Female SCID mice were inoculated subcutaneously with WSU-DLCL2 cells in the flank region above the right hind leg. Following inoculation of animals, the tumors were allowed to grow to approximately 200 mm^3 prior to randomization. On day 14 following tumor cell inoculation, the mice bearing WSU-DLCL2 tumors ranging between 150 and 250 mm^3 were pooled together and randomized into various treatment groups. Compound 1 was formulated in 0.5% Methyl Cellulose, 0.25% Tween 80 and 50 mM Citrate pH 3 in water. Tazemetostat was formulated in CMC-Tween. Compound 1 (1 mg/kg) was orally administered with three cycles of once daily for 5 consecutive days followed by 2 days off starting from day 14 after tumor cell inoculation. Tazemetostat 200 mg/kg) was orally administered twice day (BID) for three weeks. In combination group the animals received Compound 1 (1 mg/kg/5 D on/2 D off) and tazemetostat (200 mg/kg, BID) simultaneously for three weeks starting from day 14 after tumor cell inoculation. Tumors were measured twice a week using calipers and tumor volumes were calculated using the formula of W^2×L/2. Statistical analysis was performed using a one-way or 2-way analysis of variance (ANOVA). Synergy calculations were performed using fractional product method.

[2] = system: DB DLBCL xenograft tumors; test: DB (DLBCL) xenograft model, Compound 1 alone and with tazemetostat; format: in vivo, female SCID mice; conditions: for tumor volume reduction: 5 D on/2 D off
Protocol: as §1, with “DB” for “WSU-DLCL2”, “(3, 10 or 30” for “(1”
as §2, with “bearing DB” for “bearing WSU-DLCL2”, “with DB” for “with WSU-DLCL2”, “day 33” for “day 14”, “1 (3, 10 or 30” for “1 (1”, “Tazemetostat (200” for “Tazemetostat 200”, “1 (3, 10 or 30 mg/kg, 5” for “1 (1 mg/kg/5”

[3] = system: panel of DLBCL cell lines; test: CellTiter-Glo proliferation, Compound 1 with BET inhibitor Compound B; format: cell-based; conditions: Combinations of Compound B and Compound 1; 40 DLBCL cell lines; 5 days
Protocol: A panel of DLBCL cell lines in the following table were treated with single-agent Compound 1, single agent Compound B (a BET inhibitor), along with the combinations of Compound 1 and Compound B, at a concentration range to investigate the antiproliferative activities.
Experimental procedures: CellTiter-Glo (CTG), a luminescent dye that measures adenosine-5′-triphosphate (ATP), was used to quantify the cell proliferation across a panel of 40 unique DLBCL cell lines. Single agents and combinations were pre-spotted into 384-well plates (diluted in final dimethyl sulfoxide [DMSO] concentration of 0.1% for a maximal volume of 50 μL). […]
For each DLBCL cell line, 50 μL of cell suspension at their respective seeding densities of 0.025 to 0.2×10^6 cells per mL were added to 384-well plates containing the compounds. The effect of the single agents and combinations on the proliferation/viability of cells was assessed after 5 days of incubation. Twenty-five microliters of CTG per well was then dispensed to the cell suspension, and ATP released by viable cells was measured after a 30-minute incubation as relative luminescence units (RLU) using an EnVision plate reader (PerkinElmer, Covina, CA). […]

SMILES: O=C1CC[C@H](N2C(=O)c3cccc(NCc4ccc(CN5CC(N6CCOCC6)C5)cc4F)c3C2=O)C(=O)N1 [Compound 1, (S)-2-(2,6-dioxopiperidin-3-yl)-4-((2-fluoro-4-((3-morpholinoazetidin-1-yl)methyl)benzyl)amino)isoindoline-1,3-dione]
- combination antitumor activity (fractional product method) ([1]; Compound 1 1 mg/kg and tazemetostat 200 mg/kg): synergistic
- tumor volume reduction compared to vehicle control ([1]; Compound 1 1 mg/kg in combination with tazemetostat 200 mg/kg): 93.7%
- inhibition of tumor growth ([1]; single agent Compound 1 1 mg/kg oral, 5 D on/2 D off, three cycles): −45.6%
- tumor volume reduction compared with vehicle control ([2]; Compound 1 3 mg/kg in combination with tazemetostat 200 mg/kg): 99.1%
- tumor volume reduction compared with vehicle control ([2]; Compound 1 10 mg/kg in combination with tazemetostat 200 mg/kg): 100%
- tumor volume reduction compared with vehicle control ([2]; Compound 1 30 mg/kg in combination with tazemetostat 200 mg/kg): 100%
- combination antitumor activity (fractional product method) ([2]; Compound 1 at 3, 10 or 30 mg/kg and tazemetostat at 200 mg/kg): synergistic
- tumor volume reduction ([2]; single agent Compound 1 3 mg/kg oral): 16.9%
- tumor volume reduction ([2]; single agent Compound 1 10 mg/kg oral): 41.11%
- tumor volume reduction ([2]; single agent Compound 1 30 mg/kg oral): 48.9%
- animals tumor free ([2]; tazemetostat in combination with 3 mg/kg Compound 1): 90%
- animals tumor free ([2]; tazemetostat in combination with 10 mg/kg Compound 1): 100%
- animals tumor free ([2]; tazemetostat in combination with 30 mg/kg Compound 1): 100%
- combination effect on proliferation (Bliss independence and HSA models) [3]: synergy and additivity in the majority of DLBCL cell lines
